# Marks after values point to notes of the source that are not given here.
# System: ZR75-1 cells
# Test: Immuno-staining of protein expression and protein phosphorylation, ZR75-1 cells
# Assay type: cell-based
# Set-up: ATM level / P-317 (ULK1) level / Beclin1 level / ATG5 level / HDAC8 level / BIM level: scale not given here
# Method: ZR75-1 and MCF7 cells were treated with vehicle control, GZ17-6.02, Palbociclib or the drugs combined for 3 hours and for 6 hours. Cells were fixed in place and immuno-staining performed with in house validated antibodies to detect protein expression and protein phosphorylation.
smiles,measurement,setting,value
"CC(=O)c1c(C)c2cnc(Nc3ccc(N4CCNCC4)cn3)nc2n(C2CCCC2)c1=O [PALBO, Palbociclib]",AKT level,"ZR75, 3 h",100
same,AMPKa level,"ZR75, 3 h",100
same,ATG5 level,"ZR75, 3 h",107
same,ATG13 level,"ZR75, 3 h",101
same,ATM level,"ZR75, 3 h",99
same,BAK level,"ZR75, 3 h",107
same,BAX level,"ZR75, 3 h",106
same,BCL-XL level,"ZR75, 3 h",94
same,BIM level,"ZR75, 3 h",109
same,Beclin1 level,"ZR75, 3 h",112
same,CD95 level,"ZR75, 3 h",100
same,CHOP level,"ZR75, 3 h",107
same,Cyclin D level,"ZR75, 3 h",108
same,Cyclin E level,"ZR75, 3 h",103
same,ER level,"ZR75, 3 h",100
same,ERBB1 level,"ZR75, 3 h",99
same,ERBB2 level,"ZR75, 3 h",99
same,ERBB3 level,"ZR75, 3 h",100
same,ERK1/2 level,"ZR75, 3 h",100
same,ERK2 level,"ZR75, 3 h",100
same,ERRB4 level,"ZR75, 3 h",100
same,FAS-L level,"ZR75, 3 h",108
same,GRP78 level,"ZR75, 3 h",108
same,HDAC1 level,"ZR75, 3 h",101
same,HDAC2 level,"ZR75, 3 h",99
same,HDAC3 level,"ZR75, 3 h",96
same,HDAC4 level,"ZR75, 3 h",100
same,HDAC5 level,"ZR75, 3 h",98
same,HDAC6 level,"ZR75, 3 h",99
same,HDAC7 level,"ZR75, 3 h",101
same,HDAC8 level,"ZR75, 3 h",100
same,HDAC9 level,"ZR75, 3 h",101
same,HDAC10 level,"ZR75, 3 h",98
same,HDAC11 level,"ZR75, 3 h",96
same,IDO1 level,"ZR75, 3 h",96
same,JAK2 level,"ZR75, 3 h",100
same,JNK1/2 level,"ZR75, 3 h",100
same,LATS1/2 level,"ZR75, 3 h",98
same,MCL1 level,"ZR75, 3 h",96
same,MHCA level,"ZR75, 3 h",102
same,NEDD4 level,"ZR75, 3 h",100
same,NFkB level,"ZR75, 3 h",100
same,ODC level,"ZR75, 3 h",100
same,P-89 (TAZ) level,"ZR75, 3 h",101
same,P-109 (YAP) level,"ZR75, 3 h",101
same,P-127 (YAP) level,"ZR75, 3 h",100
same,P-317 (ULK1) level,"ZR75, 3 h",112
same,P-397 (YAP) level,"ZR75, 3 h",98
same,P-757 (ULK1) level,"ZR75, 3 h",96
same,P-909 (LATS1/2) level,"ZR75, 3 h",98
same,P-1079 (LATS1/2) level,"ZR75, 3 h",101
same,P-AMPKa level,"ZR75, 3 h",115#
same,P-ATG13 level,"ZR75, 3 h",113#
same,P-ATM level,"ZR75, 3 h",106
same,P-ERBB1 level,"ZR75, 3 h",101
same,P-ERBB2 level,"ZR75, 3 h",96
same,P-ERBB3 level,"ZR75, 3 h",115#
same,P-ERBB4 level,"ZR75, 3 h",107
same,P-ERK level,"ZR75, 3 h",97
same,P-JAK2 level,"ZR75, 3 h",100
same,P-JNK level,"ZR75, 3 h",90
same,P-KIT level,"ZR75, 3 h",100
same,P-MET level,"ZR75, 3 h",101
same,P-NFkB level,"ZR75, 3 h",100
same,P-PDGFRb level,"ZR75, 3 h",100
same,P-PERK level,"ZR75, 3 h",111
same,P-S2448 (mTOR) level,"ZR75, 3 h",97
same,P-S2481 (mTOR) level,"ZR75, 3 h",96
same,P-T308 (AKT) level,"ZR75, 3 h",106
same,P-Y694 (STAT5) level,"ZR75, 3 h",100
same,P-Y705 (STAT3) level,"ZR75, 3 h",99
same,P-eIF2a level,"ZR75, 3 h",110
same,P-p38 level,"ZR75, 3 h",101
same,P-p70 T389 level,"ZR75, 3 h",100
same,PD-L1 level,"ZR75, 3 h",100
same,PD-L2 level,"ZR75, 3 h",100
same,PDGFRb level,"ZR75, 3 h",100
same,PERK level,"ZR75, 3 h",101
same,PP1 level,"ZR75, 3 h",99
same,PTEN level,"ZR75, 3 h",101
same,STAT3 level,"ZR75, 3 h",100
same,STAT5 level,"ZR75, 3 h",100
same,TAZ level,"ZR75, 3 h",100
same,ULK1 level,"ZR75, 3 h",100
same,Y416 (c-SRC) level,"ZR75, 3 h",101
same,Y527 (c-SRC) level,"ZR75, 3 h",99
same,YAP level,"ZR75, 3 h",98
same,c-KIT level,"ZR75, 3 h",100
same,c-MET level,"ZR75, 3 h",100
same,c-SRC level,"ZR75, 3 h",101
same,eIF2a level,"ZR75, 3 h",99
same,mTOR level,"ZR75, 3 h",101
same,p38 level,"ZR75, 3 h",100
same,p70 S6K level,"ZR75, 3 h",100
same,P-ERBB3 level,"ZR75, 3 h, listed as Palbo",115
same,AKT level,"ZR75, 6 h",101
same,AMPKa level,"ZR75, 6 h",100
same,ATG5 level,"ZR75, 6 h",114#
same,ATG13 level,"ZR75, 6 h",100
same,ATM level,"ZR75, 6 h",100
same,BAK level,"ZR75, 6 h",109
same,BAX level,"ZR75, 6 h",108
same,BCL-XL level,"ZR75, 6 h",91
same,BIM level,"ZR75, 6 h",113#
same,Beclin1 level,"ZR75, 6 h",118#
same,CD95 level,"ZR75, 6 h",101
same,CHOP level,"ZR75, 6 h",109
same,Cyclin D level,"ZR75, 6 h",107
same,Cyclin E level,"ZR75, 6 h",105
same,ER level,"ZR75, 6 h",99
same,ERBB1 level,"ZR75, 6 h",100
same,ERBB2 level,"ZR75, 6 h",100
same,ERBB3 level,"ZR75, 6 h",99
same,ERK1/2 level,"ZR75, 6 h",100
same,ERK2 level,"ZR75, 6 h",99
same,ERRB4 level,"ZR75, 6 h",99
same,FAS-L level,"ZR75, 6 h",109
same,GRP78 level,"ZR75, 6 h",112
same,HDAC1 level,"ZR75, 6 h",102
same,HDAC2 level,"ZR75, 6 h",95
same,HDAC3 level,"ZR75, 6 h",97
same,HDAC4 level,"ZR75, 6 h",100
same,HDAC5 level,"ZR75, 6 h",101
same,HDAC6 level,"ZR75, 6 h",98
same,HDAC7 level,"ZR75, 6 h",102
same,HDAC8 level,"ZR75, 6 h",99
same,HDAC9 level,"ZR75, 6 h",101
same,HDAC10 level,"ZR75, 6 h",100
same,HDAC11 level,"ZR75, 6 h",100
same,IDO1 level,"ZR75, 6 h",100
same,JAK2 level,"ZR75, 6 h",100
same,JNK1/2 level,"ZR75, 6 h",100
same,LATS1/2 level,"ZR75, 6 h",99
same,MCL1 level,"ZR75, 6 h",91
same,MHCA level,"ZR75, 6 h",103
same,NEDD4 level,"ZR75, 6 h",97
same,NFkB level,"ZR75, 6 h",101
same,ODC level,"ZR75, 6 h",98
same,P-89 (TAZ) level,"ZR75, 6 h",101
same,P-109 (YAP) level,"ZR75, 6 h",105
same,P-127 (YAP) level,"ZR75, 6 h",106
same,P-317 (ULK1) level,"ZR75, 6 h",114#
same,P-397 (YAP) level,"ZR75, 6 h",99
same,P-757 (ULK1) level,"ZR75, 6 h",97
same,P-909 (LATS1/2) level,"ZR75, 6 h",109
same,P-1079 (LATS1/2) level,"ZR75, 6 h",102
same,P-AMPKa level,"ZR75, 6 h",117#
same,P-ATG13 level,"ZR75, 6 h",121#
same,P-ATM level,"ZR75, 6 h",109
same,P-ERBB1 level,"ZR75, 6 h",100
same,P-ERBB2 level,"ZR75, 6 h",98
same,P-ERBB3 level,"ZR75, 6 h",116#
same,P-ERBB4 level,"ZR75, 6 h",101
same,P-ERK level,"ZR75, 6 h",99
same,P-JAK2 level,"ZR75, 6 h",99
same,P-JNK level,"ZR75, 6 h",88
same,P-KIT level,"ZR75, 6 h",100
same,P-MET level,"ZR75, 6 h",99
same,P-NFkB level,"ZR75, 6 h",98
same,P-PDGFRb level,"ZR75, 6 h",98
same,P-PERK level,"ZR75, 6 h",111
same,P-S2448 (mTOR) level,"ZR75, 6 h",98
same,P-S2481 (mTOR) level,"ZR75, 6 h",98
same,P-T308 (AKT) level,"ZR75, 6 h",106
same,P-Y694 (STAT5) level,"ZR75, 6 h",99
same,P-Y705 (STAT3) level,"ZR75, 6 h",99
same,P-eIF2a level,"ZR75, 6 h",109
same,P-p38 level,"ZR75, 6 h",100
same,P-p70 T389 level,"ZR75, 6 h",101
same,PD-L1 level,"ZR75, 6 h",99
same,PD-L2 level,"ZR75, 6 h",104
same,PDGFRb level,"ZR75, 6 h",100
same,PERK level,"ZR75, 6 h",99
same,PP1 level,"ZR75, 6 h",99
same,PTEN level,"ZR75, 6 h",101
same,STAT3 level,"ZR75, 6 h",99
same,STAT5 level,"ZR75, 6 h",99
same,TAZ level,"ZR75, 6 h",102
same,ULK1 level,"ZR75, 6 h",100
same,Y416 (c-SRC) level,"ZR75, 6 h",102
same,Y527 (c-SRC) level,"ZR75, 6 h",98
same,YAP level,"ZR75, 6 h",99
same,c-KIT level,"ZR75, 6 h",100
same,c-MET level,"ZR75, 6 h",101
same,c-SRC level,"ZR75, 6 h",101
same,eIF2a level,"ZR75, 6 h",100
same,mTOR level,"ZR75, 6 h",100
same,p38 level,"ZR75, 6 h",99
same,p70 S6K level,"ZR75, 6 h",99
same,P-ERBB3 level,"ZR75, 6 h, listed as Palbo",116
same,increase in the levels of cyclin D and cyclin E,"ZR75 and MCF7, 3 h and 6 h, trend",5-10%
